From patent US8802678B2, “Carbonylated (aza) cyclohexanes as dopamine D3 receptor ligands” (Bioprojet, priority 2006, dated 2014)

Row | Structure (SMILES) | melting point [°C]
1 | N#CCC(=O)N[C@H]1CC[C@H](CCN2CC=C(c3ccccc3)CC2)CC1 | 203
2 | CC(=O)CN1CCC(CCN2CCN(c3ccc(F)c(C#N)c3Cl)CC2)CC1.Cl.Cl | 291
3 | COCC(=O)N[C@H]1CC[C@H](CCN2CC=C(c3cccc(C#N)c3)CC2)CC1 | 117
4 | CC(=O)CCCC(=O)N[C@H]1CC[C@H](CCN2CCN(c3cccc(C(F)(F)F)c3)CC2)CC1 [Example 202, 5-Oxo-hexanoic acid (4-{2-[4-(3-trifluoromethylphenyl)piperazin-1-yl]ethyl}cyclohexyl)amide] | 158
5 | N#CCC(=O)N[C@H]1CC[C@H](CCN2CCN(c3cccc(OC(F)(F)F)c3)CC2)CC1 [Example 157, 2-Cyano-N-(4-{2-[4-(3-trifluoromethoxyphenyl)piperazin-1-yl]ethyl}cyclohexyl)acetamide] | 173 to 174
6 | N#CCCCC(=O)N[C@H]1CC[C@H](CCN2CCN(c3ccccc3F)CC2)CC1 [Example 204, 4-Cyano-N-(4-{2-[4-(2-fluorophenyl)piperazin-1-yl]ethyl}cyclohexyl)butanamide] | 170
7 | N#CCC(=O)N[C@H]1CC[C@H](CCN2CCN(c3ccc(F)cc3F)CC2)CC1 [Example 162, 2-Cyano-N-(4-{2-[4-(2,4-difluorophenyl)piperazin-1-yl]ethyl}cyclohexyl)acetamide] | 188
8 | COCCCC(=O)N[C@H]1CC[C@H](CCN2CCN(c3ccccc3F)CC2)CC1 [Example 76, N-(4-{2-[4-(2-Fluorophenyl)-piperazin-1-yl]ethyl}cyclohexyl)-4-methoxybutanamide] | 175
9 | CCOCC(=O)N[C@H]1CC[C@H](CCN2CCN(c3ccccc3F)CC2)CC1 [Example 56, 2-Ethoxy-N-(4-{2-[4-(2-fluorophenyl)piperazin-1-yl]ethyl}cyclohexyl)acetamide] | 117 to 118

Continued, values first:

Row | melting point [°C] | Structure (SMILES)
10 | 160 | N#CCCCC(=O)N[C@H]1CC[C@H](CCN2CCN(c3ccccc3C#N)CC2)CC1 [Example 377, 4-Cyano-N-(4-{2-[4-(2-cyanophenyl)piperazin-1-yl]ethyl}cyclohexyl)butanamide]
11 | 158 to 159 | N#CCCCC(=O)N[C@H]1CC[C@H](CCN2CCN(c3cc(F)cc(Cl)c3)CC2)CC1 [Example 259, N-(4-{2-[4-(3-Chloro-5-fluorophenyl)piperazin-1-yl]ethyl}cyclohexyl)-4-cyanobutanamide]
12 | 208 | N#CCC(=O)N[C@H]1CC[C@H](CCN2CCN(c3ccc4c(c3)OCCO4)CC2)CC1 [Example 316, 2-Cyano-N-(4-{2-[4-(2,3-dihydrobenzo[1,4]dioxin-6-yl)piperazin-1-yl]ethyl}cyclohexyl)acetamide]
13 | 153 | CC(C)c1cccc(N2CCN(CC[C@H]3CC[C@H](NC(=O)CC#N)CC3)CC2)c1 [Example 335, 2-Cyano-N-(4-{2-[4-(3-isopropylphenyl)piperazin-1-yl]ethyl}cyclohexyl)acetamide]
14 | 151 | N#CCCCC(=O)N[C@H]1CC[C@H](CCN2CCN(c3ccc(Cl)c(Cl)c3)CC2)CC1 [Example 368, 4-Cyano-N-(4-{2-[4-(3,4-dichlorophenyl)piperazin-1-yl]ethyl}cyclohexyl)butanamide]
15 | 208 | O=C(N[C@H]1CC[C@H](CCN2CCN(c3cc(F)c(F)c(F)c3)CC2)CC1)C1=CCCC1 [Example 463, Cyclopent-1-enecarboxylic acid (4-{2-[4-(3,4,5-trifluorophenyl)piperazin-1-yl]ethyl}cyclohexyl) amide]
16 | 158 | CS(=O)(=O)CC(=O)N[C@H]1CC[C@H](CCN2CCN(c3cccc(C(F)(F)F)c3)CC2)CC1 [Example 337, 2-Methanesulfonyl-N-(4-{2-[4-(3-trifluoromethylphenyl)piperazin-1-yl]ethyl}cyclohexyl)acetamide]
17 | 170 | COc1ccc(C)c(N2CCN(CC[C@H]3CC[C@H](NC(=O)CCCC#N)CC3)CC2)c1 [Example 391, 4-Cyano-N-(4-{2-[4-(5-methoxy-2-methylphenyl)piperazin-1-yl]ethyl}cyclohexyl)butanamide]
